Reference: ChEMBL document CHEMBL5154782, “Discovery of Potent PROTACs Targeting EGFR Mutants through the Optimization of Covalent EGFR Ligands” (J Med Chem, 2022)

Legend:
NCI-H1975 = experiment: Antiproliferative activity against human NCI-H1975 cells expressing EGFR L858R/T790M mutant assessed as inhibition of cell proliferation incubated for 72 hrs by MTT assay; assay type: functional, cell-based; settings: NCI-H1975, 72 h
HCC827 [1] = experiment: Antiproliferative activity against human HCC827 cells expressing EGFR deletion19 mutant assessed as inhibition of cell proliferation incubated for 72 hrs by MTT assay; assay type: functional, cell-based; settings: HCC827, 72 h
[2] = system: von Hippel-Lindau disease tumor suppressor/Epidermal growth factor receptor (Homo sapiens), P00533+P40337 [UNDEFINED MUTATION]; experiment: Protac activity at VHL/EGFR/deletion19 in human HCC827 cells assessed as induction of EGFR degradation at 30 nM incubated for 24 hrs by Western blot analysis relative to control; assay type: cell-based
[3] = system: von Hippel-Lindau disease tumor suppressor/Epidermal growth factor receptor (Homo sapiens), P00533+P40337 [UNDEFINED MUTATION]; experiment: Protac activity at VHL/EGFR/deletion19 in human HCC827 cells assessed as induction of EGFR degradation at 3 nM incubated for 24 hrs by Western blot analysis relative to control; assay type: cell-based
A-431 = experiment: Antiproliferative activity against human A-431 cells expressing EGFR wildtype assessed as inhibition of cell proliferation incubated for 72 hrs by MTT assay; assay type: functional, cell-based; settings: A-431, 72 h
[4] = system: von Hippel-Lindau disease tumor suppressor/Epidermal growth factor receptor (Homo sapiens), P00533+P40337 [L858R,T790M]; experiment: Protac activity at VHL/EGFR L858R/T790M mutant in human NCI-H1975 cells assessed as induction of EGFR degradation at 10 nM incubated for 24 hrs by Western blot analysis relative to control; assay type: cell-based
[5] = system: von Hippel-Lindau disease tumor suppressor/Epidermal growth factor receptor (Homo sapiens), P00533+P40337 [L858R,T790M]; experiment: Protac activity at VHL/EGFR L858R/T790M mutant in human NCI-H1975 cells assessed as induction of EGFR degradation at 100 nM incubated for 24 hrs by Western blot analysis relative to control; assay type: cell-based
[6] = target: von Hippel-Lindau disease tumor suppressor/Epidermal growth factor receptor (Homo sapiens, UniProt P00533+P40337, L858R/T790M); experiment: Protac activity at VHL/EGFR L858R/T790M mutant (unknown origin) assessed as inhibition of EGFR incubated for 40 mins in presence of ATP by Kinase Glo luminescence assay; assay type: protein assay
[7] = system: von Hippel-Lindau disease tumor suppressor/Epidermal growth factor receptor (Homo sapiens), P00533+P40337 [L858R,T790M]; experiment: Protac activity at VHL/[…] cells assessed as induction of EGFR degradation at 100 nM incubated for 24 hrs by Western blot analysis relative to control; assay type: cell-based
[8] = system: von Hippel-Lindau disease tumor suppressor/Epidermal growth factor receptor (Homo sapiens), P00533+P40337 [L858R,T790M]; experiment: Protac activity at VHL/EGFR L858R/T790M mutant in human NCI-H1975 cells assessed as induction of EGFR degradation at 1000 nM incubated for 24 hrs by Western blot analysis relative to control; assay type: cell-based
[9] = system: von Hippel-Lindau disease tumor suppressor/Epidermal growth factor receptor (Homo sapiens), P00533+P40337 [L858R,T790M]; experiment: Protac activity at VHL/[…] cells assessed as induction of EGFR degradation at 1000 nM incubated for 24 hrs by Western blot analysis relative to control; assay type: cell-based
HCC827 [10] = experiment: Antiproliferative activity against human […] assessed as inhibition of cell proliferation incubated for 72 hrs by MTT assay; assay type: functional, cell-based; settings: HCC827, 72 h

Structure (SMILES)	IC50 (NCI-H1975)	IC50 (HCC827 [1])	Activity [2]	Activity [3]	IC50 (A-431)	Activity [4]	Activity [5]	IC50 [6]	Activity [7]	Activity [8]	Activity [9]	IC50 (HCC827 [10])
C=CC(=O)N1CC[C@@H](n2c(Nc3ccccc3)nc3cnc(Nc4ccc(N5CCN(C)CC5)cc4)nc32)C1	290 nM	1.16 nM										
C=CC(=O)N1CCC[C@H](n2c(Nc3ccccc3)nc3cnc(Nc4ccc(N5CCN(CCCCCCC(=O)N[C@H](C(=O)N6C[C@H](O)C[C@H]6C(=O)NCc6ccc(-c7scnc7C)cc6)C(C)(C)C)CC5)cc4)nc32)C1	40 nM	1.67 nM	70%	62%	> 10000 nM	49%	69%					
C=CC(=O)N1CCC[C@H](n2c(Nc3ccccc3)nc3cnc(Nc4ccc(N5CCN(CC(=O)NCCCCCC(=O)N[C@H](C(=O)N6C[C@H](O)C[C@H]6C(=O)NCc6ccc(-c7scnc7C)cc6)C(C)(C)C)CC5)cc4)nc32)C1	250 nM	36.5 nM	60%	46%		< 20%	23%					
COc1cc(N2CCN(CC(=O)NCCCCCCC(=O)N[C@H](C(=O)N3C[C@H](O)C[C@H]3C(=O)NCc3ccc(-c4scnc4C)cc3)C(C)(C)C)CC2)c(NC(=O)/C(C#N)=C/C2CC2)cc1Nc1nccc(-c2cn(C)c3ccccc23)n1	> 10000 nM	> 10000 nM						> 10000 nM				
COc1cc(N(C)CCN(C)C)c(NC(=O)/C=C/CN(C)CCN(C)C(=O)CCCCCC(=O)N[C@H](C(=O)N2C[C@H](O)C[C@H]2C(=O)NCc2ccc(-c3scnc3C)cc2)C(C)(C)C)cc1Nc1nccc(-c2cn(C)c3ccccc23)n1	1470 nM	140 nM					< 20%		< 20%	< 20%	25%	
COc1cc(N(C)CCN(C)C)c(NC(=O)/C=C/CN(C)CCCCCCCCCC(=O)N[C@H](C(=O)N2C[C@H](O)C[C@H]2C(=O)NCc2ccc(-c3scnc3C)cc2)C(C)(C)C)cc1Nc1nccc(-c2cn(C)c3ccccc23)n1	985 nM	61 nM			840 nM		< 20%		< 20%	< 20%	30%	
C=CC(=O)N1CC[C@H](n2c(Nc3ccccc3)nc3cnc(Nc4ccc(N5CCN(CCCCCCC(=O)N[C@H](C(=O)N6C[C@H](O)C[C@H]6C(=O)NCc6ccc(-c7scnc7C)cc6)C(C)(C)C)CC5)cc4)nc32)C1	44 nM	1.66 nM	81%	65%	> 10000 nM	38%	79%					1.86 nM
C=CC(=O)Nc1cc(Nc2nccc(-c3cn(C)c4ccccc34)n2)c(OC)cc1N(C)CCN(C)CC(=O)NCCOCCOCC(=O)N[C@H](C(=O)N1C[C@H](O)C[C@H]1C(=O)NCc1ccc(-c2scnc2C)cc1)C(C)(C)C	2370 nM	768 nM										
C=CC(=O)N1CCC[C@@H](n2c(Nc3ccccc3)nc3cnc(Nc4ccc(N5CCN(C)CC5)cc4)nc32)C1	266 nM	1.77 nM										
COc1cc(N(C)CCN(C)C)c(NC(=O)/C=C/CN(C)CCN(C)C(=O)CCCCCCC(=O)N[C@H](C(=O)N2C[C@H](O)C[C@H]2C(=O)NCc2ccc(-c3scnc3C)cc2)C(C)(C)C)cc1Nc1nccc(-c2cn(C)c3ccccc23)n1	1690 nM	130 nM			> 10000 nM		< 20%		< 20%	< 20%	24%	
COc1cc(N(C)CCN(C)C)c(NC(=O)/C(C#N)=C/C(C)(C)NC(=O)CCCCCCC(=O)N[C@H](C(=O)N2C[C@H](O)C[C@H]2C(=O)NCc2ccc(-c3scnc3C)cc2)C(C)(C)C)cc1Nc1nccc(-c2cn(C)c3ccccc23)n1	2360 nM	544 nM					< 20%	857 nM	< 20%	< 20%	26%	
C=CC(=O)N1CCC(n2c(Nc3ccccc3)nc3cnc(Nc4ccc(N5CCN(C)CC5)nc4)nc32)CC1	290 nM	3.05 nM										
C=CC(=O)N1CCC[C@H](n2c(Nc3ccccc3)nc3cnc(Nc4ccc(N5CCN(CC(=O)NCCCCCCC(=O)N[C@H](C(=O)N6C[C@H](O)C[C@H]6C(=O)NCc6ccc(-c7scnc7C)cc6)C(C)(C)C)CC5)cc4)nc32)C1	127 nM	8.93 nM	77%	63%		< 20%	< 20%					
C=CC(=O)N1CCC[C@H](n2c(Nc3ccccc3)nc3cnc(Nc4ccc(N5CCN(CCCCCCCC(=O)N[C@H](C(=O)N6C[C@@H](O)C[C@H]6C(=O)N[C@@H](C)c6ccc(-c7scnc7C)cc6)C(C)(C)C)CC5)cc4)nc32)C1	41 nM	1.83 nM										
COc1cc(N2CCN(C)CC2)c(NC(=O)/C(C#N)=C/C(C)(C)NC(=O)CCCCCC(=O)N[C@H](C(=O)N2C[C@H](O)C[C@H]2C(=O)NCc2ccc(-c3scnc3C)cc2)C(C)(C)C)cc1Nc1nccc(-c2cn(C)c3ccccc23)n1	5790 nM	1390 nM						> 10000 nM				
C=CC(=O)N1CCC[C@@H](n2c(Nc3ccccc3)nc3cnc(Nc4ccc(N5CCN(CCCCCCCC(=O)N[C@H](C(=O)N6C[C@H](O)C[C@H]6C(=O)N[C@@H](C)c6ccc(-c7scnc7C)cc6)C(C)(C)C)CC5)cc4)nc32)C1	1060 nM											6.49 nM
COc1cc(N2CCN(CC(=O)NCCCCCCC(=O)N[C@H](C(=O)N3C[C@H](O)C[C@H]3C(=O)NCc3ccc(-c4scnc4C)cc3)C(C)(C)C)CC2)c(NC(=O)/C(C#N)=C/c2ccncc2)cc1Nc1nccc(-c2cn(C)c3ccccc23)n1	> 10000 nM	> 10000 nM						> 10000 nM				
C=CC(=O)N1CCC(n2c(Nc3ccccc3)nc3cnc(Nc4ccc(N5CCN(C)CC5)cc4)nc32)CC1	360 nM	2.19 nM										
CCC(=O)N1CCC[C@H](n2c(Nc3ccccc3)nc3cnc(Nc4ccc(N5CCN(C)CC5)cc4)nc32)C1	1170 nM	2.48 nM										
C=CC(=O)N1CC[C@@H](n2c(Nc3ccccc3)nc3cnc(Nc4ccc(N5CCN(CCCCCCC(=O)N[C@H](C(=O)N6C[C@H](O)C[C@H]6C(=O)NCc6ccc(-c7scnc7C)cc6)C(C)(C)C)CC5)cc4)nc32)C1	550 nM											12.4 nM
C=CC(=O)Nc1cc(Nc2nccc(-c3cn(C)c4ccccc34)n2)c(OC)cc1N(CCCCCCC(=O)NCCOCCOCC(=O)N[C@H](C(=O)N1C[C@H](O)C[C@H]1C(=O)NCc1ccc(-c2scnc2C)cc1)C(C)(C)C)CCN(C)C	800 nM	683 nM					< 20%		23%	< 20%	25%	
COc1cc(N(C)CCN(C)C)c(NC(=O)/C=C/CN(C)CCCCCCCC(=O)N[C@H](C(=O)N2C[C@H](O)C[C@H]2C(=O)NCc2ccc(-c3scnc3C)cc2)C(C)(C)C)cc1Nc1nccc(-c2cn(C)c3ccccc23)n1	640 nM	67 nM					< 20%		< 20%	< 20%	25%	
CN1CCN(c2ccc(Nc3ncc4nc(Nc5ccccc5)n(C5CCCC5)c4n3)cc2)CC1	342 nM	0.93 nM										
C=CC(=O)N1CCC[C@H](n2c(Nc3ccccc3)nc3cnc(Nc4ccc(N5CCN(CC(=O)NCCOCCOCC(=O)N[C@H](C(=O)N6C[C@H](O)C[C@H]6C(=O)NCc6ccc(-c7scnc7C)cc6)C(C)(C)C)CC5)cc4)nc32)C1	282 nM	59.6 nM	57%	50%		< 20%	< 20%					
C=CC(=O)Nc1cc(Nc2nccc(-c3cn(C)c4ccccc34)n2)c(OC)cc1N(CCCCCCC(=O)N[C@H](C(=O)N1C[C@H](O)C[C@H]1C(=O)NCc1ccc(-c2scnc2C)cc1)C(C)(C)C)CCN(C)C	760 nM	75 nM			1550 nM		< 20%		< 28%	< 20%	34%	
COc1cc(N(C)CCN(C)C)c(NC(=O)/C=C/CN(C)CCN(C)C(=O)CCCC(=O)N[C@H](C(=O)N2C[C@H](O)C[C@H]2C(=O)NCc2ccc(-c3scnc3C)cc2)C(C)(C)C)cc1Nc1nccc(-c2cn(C)c3ccccc23)n1	2760 nM	150 nM										
C=CC(=O)Nc1cccc(-n2c(Nc3ccccc3)nc3cnc(Nc4ccc(N5CCN(C)CC5)cc4)nc32)c1	41 nM	0.38 nM										
C=CC(=O)Nc1cc(Nc2nccc(-c3cn(C)c4ccccc34)n2)c(OC)cc1N(CCCCCCC(=O)NCCCCCCC(=O)N[C@H](C(=O)N1C[C@H](O)C[C@H]1C(=O)NCc1ccc(-c2scnc2C)cc1)C(C)(C)C)CCN(C)C	730 nM	110 nM					< 20%		< 20%	< 20%	< 20%	
